We go through 20 compounds from patent publication US20250101041A1, “POSITIVE ALLOSTERIC MODULATORS OF THE MUSCARINIC ACETYLCHOLINE RECEPTOR M4” (Vanderbilt University, priority 2022, published 2025).

The structures appear in SMILES notation.

This test concerns the target T1, human mAChR M4 (Homo sapiens, UniProt P08173).
T1 construct: expressed in transfected cells; host or cells: CHO-K1 (American Type Culture Collection), stably expressing hM4 and Gqi5
T1 sequence (P08173 1-479): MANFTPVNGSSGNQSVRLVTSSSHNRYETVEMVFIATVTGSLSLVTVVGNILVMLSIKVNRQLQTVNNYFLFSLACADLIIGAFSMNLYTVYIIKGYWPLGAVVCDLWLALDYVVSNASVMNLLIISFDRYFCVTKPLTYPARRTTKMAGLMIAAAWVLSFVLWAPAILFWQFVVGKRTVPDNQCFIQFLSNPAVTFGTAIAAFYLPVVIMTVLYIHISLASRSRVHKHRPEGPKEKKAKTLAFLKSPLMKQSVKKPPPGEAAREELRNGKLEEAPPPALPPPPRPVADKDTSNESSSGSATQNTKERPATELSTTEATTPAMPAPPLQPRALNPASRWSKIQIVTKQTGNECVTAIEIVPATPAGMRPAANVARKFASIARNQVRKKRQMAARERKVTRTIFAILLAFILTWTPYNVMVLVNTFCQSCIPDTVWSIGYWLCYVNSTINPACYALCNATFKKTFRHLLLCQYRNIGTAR
The test can be described thus: mAChR M4 cell-based functional assay: calcium mobilization (Fluo-4, FDSS), potentiation of EC20 acetylcholine response in hM4-Gqi5 CHO-K1 cells. The settings on record: human M4; for Emax at 30 µM: CHO-K1, % ACh maximum at 30 μM; for EC50: potentiation of EC20 acetylcholine response, calcium mobilization. The essentials:
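Readout is the fluorescence-ratio rise at 1 Hz on FDSS, with PAM activity taken as concentration-dependent enhancement of the EC20 acetylcholine response, fitted four-parameter for EC50/Emax. hM4-Gqi5 CHO-K1 cells carried Fluo-4 AM dye; test compounds (11 points, 1:3) preceded EC20 acetylcholine additions at 144 s and 230 s.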

As to `COc1ccc(-c2cnc3c(c2)CN(c2nn4c(=O)cc(C)nc4c(C)c2C)CC3)cc1F` [Compound 1-201, 7-(3-(3-fluoro-4-methoxyphenyl)-7,8-dihydro-1,6-naphthyridin-6(5H)-yl)-2,8,9-trimethyl-4H-pyrimido[1,2-b]pyridazin-4-one], the Emax at 30 µM came out at 86% and the EC50 was found to be 603 nM.
Consider `Cc1cc(=O)n2nc(N3CCc4ncc(N5C[C@@H](C)O[C@@H](C)C5)cc4C3)c(C)c(C)c2n1` [Compound 2-38, 7-(3-((2R,6S)-2,6-dimethylmorpholino)-7,8-dihydro-1,6-naphthyridin-6(5H)-yl)-2,8,9-trimethyl-4H-pyrimido[1,2-b]pyridazin-4-one], for which the Emax at 30 µM turned out to be 76% and the EC50 turned out to be 1300 nM.
`Cc1cc2ncc(Cl)c(=O)n2nc1N1CCc2ncc(C(F)(F)F)cc2C1` [Compound 1-4, 3-chloro-8-methyl-7-(3-(trifluoromethyl)-7,8-dihydro-1,6-napthyridin-6(5H)-yl)-4H-pyrimido[1,2-b]pyridazin-4-one]: the Emax at 30 µM turned out to be 96% and the EC50 is 181 nM.
Take `Cc1cc2nccc(=O)n2nc1N1CCc2ncc(-c3cncc(F)c3C)cc2C1` [Compound 1-399, 7-(3-(5-fluoro-4-methylpyridin-3-yl)-7,8-dihydro-1,6-naphthyridin-6(5H)-yl)-8-methyl-4H-pyrimido[1,2-b]pyridazin-4-one]: the Emax at 30 µM was 63% and the EC50 is 130 nM.
Take `Cc1c(N2CCc3ncc(N4CC(C)(C)OC4=O)cc3C2)nn2c(=O)ccnc2c1C` [Compound 2-150, 3-(6-(8,9-dimethyl-4-oxo-4H-pyrimido[1,2-b]pyridazin-7-yl)-5,6,7,8-tetrahydro-1,6-naphthyridin-3-yl)-5,5-dimethyloxazolidin-2-one]: the Emax at 30 µM was determined as 63% and the EC50 worked out at 4380 nM.
On to `COCc1cc(=O)n2nc(N3CCc4ncc(-c5cnc(Cl)cc5C)cc4C3)c(C)cc2n1` [Compound 1-357, 7-(3-(6-chloro-4-methylpyridin-3-yl)-7,8-dihydro-1,6-naphthyridin-6(5H)-yl)-2-(methoxymethyl)-8-methyl-4H-pyrimido[1,2-b]pyridazin-4-one], for which the Emax at 30 µM turned out to be 86% and the EC50 is 383 nM.
With `Cc1cc(F)ccc1-c1cnc2c(c1)CN(c1nn3c(=O)ccnc3c(C)c1C)CC2` [Compound 1-264, 7-(3-(4-fluoro-2-methylphenyl)-7,8-dihydro-1,6-naphthyridin-6(5H)-yl)-8,9-dimethyl-4H-pyrimido[1,2-b]pyridazin-4-one], the Emax at 30 µM worked out at 98% and the EC50 was 222 nM.
The corresponding values for `Cc1cc(=O)n2nc(N3CCc4ncc(NCC5CCCOC5)cc4C3)c(C)c(C)c2n1` (stereo not shown) [Compound 2-44, 2,8,9-trimethyl-7-(3-(((tetrahydro-2H-pyran-3-yl)methyl)amino)-7,8-dihydro-1,6-naphthyridin-6(5H)-yl)-4H-pyrimido[1,2-b]pyridazin-4-one] are 65% and 611 nM.
On to `Cc1c(N2CCc3ncc(-c4cnc(Cl)c(F)c4)cc3C2)nn2c(=O)ccnc2c1C` [Compound 1-146, 7-(3-(6-chloro-5-fluoropyridin-3-yl)-7,8-dihydro-1,6-naphthyridin-6(5H)-yl)-8,9-dimethyl-4H-pyrimido[1,2-b]pyridazin-4-one], for which the Emax at 30 µM amounted to 86% and the concentration giving a half-maximal response (EC50) was determined as 399 nM.
Regarding `Cc1cc(=O)n2nc(N3CCc4ncc(-c5cccs5)cc4C3)c(C)cc2n1` [Compound 1-297, 2,8-dimethyl-7-(3-(thiophen-2-yl)-7,8-dihydro-1,6-naphthyridin-6(5H)-yl)-4H-pyrimido[1,2-b]pyridazin-4-one], the Emax at 30 µM was determined as 87% and the EC50 amounted to 76 nM.
For `COCc1cc(=O)n2nc(N3CCc4ncc(-c5cccs5)cc4C3)c(C)cc2n1` [Compound 1-367, 2-(methoxymethyl)-8-methyl-7-(3-(thiophen-2-yl)-7,8-dihydro-1,6-naphthyridin-6(5H)-yl)-4H-pyrimido[1,2-b] pyridazin-4-one], the Emax at 30 µM was found to be 71% and the EC50 worked out at 141 nM.
In the case of `Cc1c(N2CCc3ncc(-c4ccnn4C4COC4)cc3C2)nn2c(=O)ccnc2c1C` [Compound 1-151, 8,9-dimethyl-7-(3-(1-(oxetan-3-yl)-1H-pyrazol-5-yl)-7,8-dihydro-1,6-naphthyridin-6(5H)-yl)-4H-pyrimido[1,2-b]pyridazin-4-one], the Emax at 30 µM turned out to be 75% and the EC50 turned out to be 3210 nM.
`Cc1cc(=O)n2nc(N3CCc4ncc(-c5ccc(F)cc5C)cc4C3)c(C)c(C)c2n1` [Compound 1-274, 7-(3-(4-fluoro-2-methylphenyl)-7,8-dihydro-1,6-naphthyridin-6(5H)-yl)-2,8,9-trimethyl-4H-pyrimido[1,2-b]pyridazin-4-one]: the Emax at 30 µM turned out to be 84% and the EC50 is 448 nM.
Regarding `Cc1c(N2CCc3ncc(-c4cnn(C)c4C)cc3C2)nn2c(=O)ccnc2c1C` [Compound 1-338, 7-(3-(1,5-dimethyl-1H-pyrazol-4-yl)-7,8-dihydro-1,6-naphthyridin-6(5H)-yl)-8,9-dimethyl-4H-pyrimido[1,2-b]pyridazin-4-one], the Emax at 30 µM came to 88% and the EC50 is 131 nM.
Turning to `Cc1cc2nccc(=O)n2nc1N1CCc2ncc(Nc3cccc(F)c3F)cc2C1` [Compound 2-106, 7-(3-((2,3-difluorophenyl)amino)-7,8-dihydro-1,6-naphthyridin-6(5H)-yl)-8-methyl-4H-pyrimido[1,2-b]pyridazin-4-one], the Emax at 30 µM came to 84% and the EC50 is 32 nM.
For the compound `Cc1cc2nccc(=O)n2nc1N1CCc2ncc(-c3ccc(Cl)nn3)cc2C1` [Compound 1-334, 7-(3-(6-chloropyridazin-3-yl)-7,8-dihydro-1,6-naphthyridin-6(5H)-yl)-8-methyl-4H-pyrimido [1,2-b]pyridazin-4-one], the Emax at 30 µM was determined as 45% and the EC50 stood at 1230 nM.
`Cc1ncc(-c2cnc3c(c2)CN(c2nn4c(=O)ccnc4cc2C)CC3)c(C)n1` [Compound 1-420, 7-(3-(2,4-dimethylpyrimidin-5-yl)-7,8-dihydro-1,6-naphthyridin-6(5H)-yl)-8-methyl-4H-pyrimido[1,6-b]pyridazin-4-one]: the Emax at 30 µM turned out to be 93% and the EC50 came out at 1720 nM.
The corresponding values for `COCc1cc(=O)n2nc(N3CCc4ncc(-c5ccccc5OC(F)(F)F)cc4C3)c(C)cc2n1` [Compound 1-363, 2-(methoxymethyl)-8-methyl-7-(3-(2-(trifluoromethoxy)phenyl)-7,8-dihydro-1,6-naphthyridin-6(5H)-yl)-4H-pyrimido[1,2-b] pyridazin-4-one] are 65% and 3060 nM.
On to `COc1cc(F)ccc1Nc1cnc2c(c1)CN(c1nn3c(=O)ccnc3cc1C)CC2` [Compound 2-74, 7-(3-((4-fluoro-2-methoxyphenyl)amino)-7,8-dihydro-1,6-naphthyridin-6(5H)-yl)-8-methyl-4H-pyrimido[1,2-b]pyridazin-4-one], for which the Emax at 30 µM was determined as 62% and the EC50 came out at 398 nM.
For `Cc1cc2nccc(=O)n2nc1N1CCc2ncc(-c3ccc(F)nc3F)cc2C1` [Compound 1-318, 7-(3-(2,6-difluoropyridin-3-yl)-7,8-dihydro-1,6-naphthyridin-6(5H)-yl)-8-methyl-4H-pyrimido [1,2-b]pyridazin-4-one], the Emax at 30 µM came out at 55% and the EC50 was determined as 2400 nM.
